According to patent publication US20210221848A1, “POLYMYXIN DERIVATIVES AND THEIR USE IN COMBINATION THERAPY TOGETHER WITH DIFFERENT ANTIBIOTICS” (priority 2014, published 2021):
Read-outs that look alike come from different tables or passages of the source.

Tests used:
[1] = absence of a second agent, Table 6B

Substance	MIC, E. coli ATCC 25922 (E. coli; sole activity, Table 6C) [micrograms/mL]	MIC, E. coli NCTC 13441 (E. coli; sole activity, Table 6C) [micrograms/mL]	MIC, P. aeruginosa ATCC 27853 (P. aeruginosa; sole activity, Table 6C) [micrograms/mL]	MIC, P. aeruginosa CCUG 59347 (P. aeruginosa; sole activity, Table 6C) [micrograms/mL]	MIC, K. pneumoniae ATCC 4352 (K. pneumoniae; sole activity, Table 6C) [micrograms/mL]	MIC, K. pneumoniae ATCC BAA-2146 (K. pneumoniae; sole activity, Table 6C) [micrograms/mL]	MIC, A. baumannii ATCC BAA-747 (A. baumannii; sole activity, Table 6C) [micrograms/mL]	MIC, A. baumannii NCTC 13424 (A. baumannii; sole activity, Table 6C) [micrograms/mL]	MIC, E. coli ATCC 25922 (E. coli; [1]) [micrograms/mL]	MIC, E. coli NCTC 13441 (E. coli; [1]) [micrograms/mL]	MIC, P. aeruginosa ATCC 27853 (P. aeruginosa; [1]) [micrograms/mL]	MIC, P. aeruginosa CCUG 59347 (P. aeruginosa; [1]) [micrograms/mL]	MIC, K. pneumoniae ATCC 4352 (K. pneumoniae; [1]) [micrograms/mL]	MIC, K. pneumoniae ATCC BAA-2146 (K. pneumoniae; [1]) [micrograms/mL]	MIC, A. baumannii ATCC BAA-747 (A. baumannii; [1]) [micrograms/mL]	MIC, A. baumannii NCTC 13424 (A. baumannii; [1]) [micrograms/mL]
(S)-3-amino-2- (benzyloxy)propan- oyl Polymyxin B nonapeptide [Example D61]	0.5	0.5	0.5	1	0.25	0.25	2	1								
5- (isobutylamino)pi- peridine-3- carbonyl Polymyxin B nonapeptide [Example D62]	0.5	1	1	2	0.5	1	4	4								
trans-4- Phenylpyrrolidine-3- carbonyl polymyxin B nonapeptide [Example D1]									4	4	0.5	2	2	1	4	4
(cis-5-(2-methylpropyl) piperidine)-3-carbonyl polymyxin B nonapeptide [Example D47]									4	8	2	>8	4	8	>8	>8
6- isobutylpiperazine- 2-carbonyl L- Thr-L-Dap- polymyxin B heptapeptide [Example D80]	0.5		0.5	0.5	0.25		0.5	0.5								
4-octylpiperidine-3- carbonyl polymyxin B nonapeptide [Example D34]									1	1	1	2	2	2	2	2
5-((2- methylpropyl)sulfon- amido)piperidine- 3-carbonyl- polymyxin B nonapeptide [Example D73]	0.25	0.5	1	2	0.5	0.5	4	2								
2-benzyl-3- (methylamino)pro- panoyl polymyxin B nonapeptide [Example D57]	0.25	0.5	0.5	1	0.25	0.25	4	2								
2-aminomethyl-3- naphthalen-2-yl- propanoyl polymyxin B nonapeptide [Example D41]									1	1	0.5	1	2		2	1
(trans-5-(2- methylpropyl) piperidine)-3-carbonyl polymyxin B nonapeptide [Example D49]									8	8	2	4	4	8	>8	>8
(S)-3-amino-2- (benzylamino)pro- panoyl Polymyxin B nonapeptide [Example D59]	0.5	0.5	0.5	1	0.5	0.5	2	1								
4- (isobutylamino)pi- peridine-3- carbonyl L-Thr-L- Dap-polymyxin B heptapeptide [Example D74]	0.25	0.25	0.25	0.5	0.125	0.5	2	2								
2-(2-aminoethyl)-4- methyl pentanoyl polymyxin B nonapeptide [Example D46]									1	1	0.5	1	0.5	1	1	2
(cis-6-octylpiperidine)- 3-carbonyl polymyxin B nonapeptide [Example D16]									>8	>8	8	1	>8	>8	>8	>8
(cis-5- cyclohexylpiperidine)- 3-carbonyl L-Thr-L- Dap-polymyxin B heptapeptide [Example D43]									2	4	1	2	2	4	4	4
(cis-6-octylpiperidine)- 3-carbonyl polymyxin B nonapeptide [Example D17]									2	2	0.5	0.5	2	2	2	4
2-aminomethyl-3- naphthalen-2-yl- propanoyl polymyxin B nonapeptide [Example D40]									2	2	0.5	1	2	4	>8	8
(cis-5-(2-methylpropyl) piperidine)-3-carbonyl polymyxin B nonapeptide [Example D48]									0.125	0.125	0.25	1	0.125	0.25	0.5	0.5
